Results reported in US10434101B2, “Heterocyclic compounds and uses thereof” (Celgene CAR LLC, priority 2010, dated 2019).
Read-outs that look alike come from different tables or passages of the source.

Tests used:
[1] = tested on: H1975 cells (EGFR L858R/T790M); assay: Cell proliferation (CellTiter Glo, 72 hr) in H1975 cells; assay type: cell-based, human; conditions: Homo sapiens, read-out: H1975 GI50
Description: (§1) A431 human epidermoid carcinoma, H1975 human NSCLC and HCC827 human NSCLC adenocarcinoma cells were obtained from the American Type Culture Center (Manassas, Va.). A431 cells were grown in DMEM (Invitrogen, Carlsbad, Calif.) supplemented with 10% FBS (HyClone, South Logan, Utah) and 1% Penicillin-Streptomycin (P/S, Lonza, Walkersville, Md.).
(§2) Cells were plated in Growth Media supplemented with 5% FBS and 1% P/S at a density of 3,000 cells per well in 96 well tissue culture plates (Corning). […] Growth inhibition (GI50) values were determined by Graph Pad Prism.

[2] = tested on: HCC827 cells (EGFR delE746-A750); assay: Cell proliferation (CellTiter Glo, 72 hr) in HCC827 cells; assay type: cell-based, human; conditions: Homo sapiens, read-out: HCC827 GI50
Description: as §1, §2

[3] = tested on: A431 cells (WT EGFR); assay: Cell proliferation (CellTiter Glo, 72 hr) in A431 cells; assay type: cell-based; conditions: Homo sapiens
Description: as §1, §2

[4] = biological target: EGFR double mutation L858R/T790M (H1975 cells) (Homo sapiens (Human), UniProt P00533, L858R/T790M); assay: Phospho-EGFR signaling (immunoblotting, 1 hr) in H1975 cells; assay type: cell-based; conditions: signaling EC50 WT (A431) / H1975
Description: as §1
All primary antibodies were obtained from Cell Signaling (Danvers, Mass.) and used at 1:1000. Secondary antibodies were used at 1:10,000. Goat anti-mouse IgG IRDye 800CW antibody was obtained from LiCor Biosciences (Lincoln, Nebr.) and goat anti-rabbit IgG Alexa Fluor 680 was obtained from Invitrogen.
Cells were grown in 12-well plates (Corning, Coring, N.Y.) to 90% confluence and then incubated in low-serum (0.1% FBS) media for 16-18 hr. […] A431 cells were then stimulated with 50 ng/ml EGF (Peprotech, Rocky Hill, N.J.) for 15 min. After treatment, cell monolayers were washed with cold PBS (Invitrogen) and immediately lysed by scrapping into 60 uL cold Cell Extraction Buffer (Invitrogen) supplemented with Complete Protease inhibitors (Roche, Indianapolis, Ind.) and PhosphoSTOP (Roche) phosphatase inhibitors.
Phospho-protein signals were quantitated using Odyssey Infrared Imaging (Li-Cor Biosciences).
To assess phosphor-EGFR signaling, blots were probed with rabbit anti-Phospho-EGFR (Y1068) and mouse total anti-EGFR antibodies. Phospho-EGFR signal was normalized to total EGFR expression for each sample. […] Normalized data was fitted using a sigmoidal curve analysis program (Graph Pad Prism version 5) with variable Hill slope to determine the EC50 values.

[5] = A-431, A431 cells, 72 hr, read-out: WT EGFR GI50

GI50 ([1]; NCI-H1975, H1975 cells, 72 hr) [nM]	GI50 ([2]; HCC827 cells, 72 hr) [nM]	GI50 [3, 5] [nM]	Ratio WT/mutant (H1975) [4]	GI50 ([3]; A-431, read-out: Comparative GI50 Values, A431) [nM]	Structure (SMILES)	GI50 ([1]; NCI-H1975, 72 h) [nM]	GI50 ([2]; HCC827, 72 h) [nM]	GI50 ([3]; A-431, 72 h, read-out: WT EGFR GI50) [nM]
10 to 100	10 to 100	> 1000	>50		C=CC(=O)Nc1cccc(Oc2nc(Nc3ccc(N4CCOCC4)cc3OC)ncc2C(F)(F)F)c1 [Compound I-1, N-(3-(2-(2-methoxy-4-morpholinophenylamino)-5-(trifluoromethyl)pyrimidin-4-yloxy)phenyl)acrylamide]			
100 to 500	10 to 100	> 1000	>5		C=CC(=O)Nc1cccc(Oc2nc(Nc3ccc(N4CCN(C(=O)CO)CC4)cc3OC)ncc2Cl)c1 [Compound I-3, N-(3-(5-chloro-2-(4-(4-(2-hydroxyacetyl)piperazin-1-yl)-2-methoxyphenylamino)pyrimidin-4-yloxy)phenyl)acrylamide]			
100 to 500	10 to 100	> 1000	>30		C=CC(=O)Nc1cccc(Oc2nc(Nc3ccc(N4CCOCC4)cc3OC)ncc2Cl)c1 [Compound I-5, N-(3-(5-chloro-2-(2-methoxy-4-morpholinophenylamino)pyrimidin-4-yloxy)phenyl)acrylamide]			
10 to 100	10 to 100	500 to 1000	>20		C=CC(=O)Nc1cccc(Nc2nc(Nc3ccc(N4CCN(C(=O)CO)CC4)cc3OC)ncc2C(F)(F)F)c1 [Compound I-6, N-(3-(2-(4-(4-(2-hydroxyacetyl)piperazin-1-yl)-2-methoxyphenylamino)-5-(trifluoromethyl)pyrimidin-4-ylamino)phenyl)acrylamide]			
100 to 500	100 to 500	> 1000	>5		C=CC(=O)Nc1cccc(Nc2nc(Nc3ccc(N4CCCN(C(C)=O)CC4)cc3OC)ncc2C(F)(F)F)c1 [Compound I-7, N-(3-(2-(4-(4-acetyl-1,4-diazepan-1-yl)-2-methoxyphenylamino)-5-(trifluoromethyl)pyrimidin-4-ylamino)phenyl)acrylamide]			
100 to 500	10 to 100	500 to 1000	>1		C=CC(=O)Nc1cccc(Nc2nc(Nc3ccc(N4CCN(C(C)=O)CC4)cc3OC)ncc2Cl)c1 [Compound I-8, N-(3-(2-(4-(4-acetylpiperazin-1-yl)-2-methoxyphenylamino)-5-chloropyrimidin-4-ylamino)phenyl)acrylamide]			
100 to 500	10 to 100	> 1000			C=CC(=O)Nc1cccc(Oc2nc(Nc3ccc(N4CCN(C(C)=O)CC4)cc3OC)ncc2Cl)c1 [Compound I-9, N-(3-(2-(4-(4-acetylpiperazin-1-yl)-2-methoxyphenylamino)-5-chloropyrimidin-4-yloxy)phenyl)acrylamide]			
100 to 500	10 to 100	> 1000			C=CC(=O)Nc1cccc(Oc2nc(Nc3ccc(N4CCOCC4)cc3OC(F)F)ncc2C(F)(F)F)c1 [Compound I-13, N-(3-(2-(2-(difluoromethoxy)-4-morpholinophenylamino)-5-(trifluoromethyl)pyrimidin-4-yloxy)phenyl)acrylamide]			
500 to 1000	100 to 500	> 1000			C=CC(=O)Nc1cccc(Oc2nc(Nc3ccc(N4CCN(C(=O)OC(C)(C)C)CC4)cc3OCC)ncc2Cl)c1 [Compound I-18, tert-butyl 4-(4-(4-(3-acrylamidophenoxy)-5-chloropyrimidin-2-ylamino)-3-ethoxyphenyl)piperazine-1-carboxylate]			
100 to 500	100 to 500	> 1000			C=CC(=O)Nc1cccc(Nc2nc(Nc3ccc(N4CCCN(C(=O)C(F)(F)F)CC4)cc3OC)ncc2C(F)(F)F)c1 [Compound I-19, N-(3-(2-(2-methoxy-4-(4-(2,2,2-trifluoroacetyl)-1,4-diazepan-1-yl)phenylamino)-5-(trifluoromethyl)pyrimidin-4-ylamino)phenyl)acrylamide]			
					C=CC(=O)Nc1cccc(Oc2nc(Nc3ccc(N4CCN(C(=O)OC)CC4)cc3OC)ncc2C(F)(F)F)c1 [Compound I-20, methyl 4-(4-(4-(3-acrylamidophenoxy)-5-(trifluoromethyl)pyrimidin-2-ylamino)-3-methoxyphenyl)piperazine-1-carboxylate]	100 to 500	100 to 500	> 1000
500 to 1000	100 to 500	> 1000			C=CC(=O)Nc1cccc(Oc2nc(Nc3ccc(N4CCN(C(=O)CC(C)(C)C)CC4)cc3OC)ncc2Cl)c1 [Compound I-23, N-(3-(5-chloro-2-(4-(4-(3,3-dimethylbutanoyl)piperazin-1-yl)-2-methoxyphenylamino)pyrimidin-4-yloxy)phenyl)acrylamide]			
100 to 500	10 to 100	> 1000			C=CC(=O)Nc1cccc(Oc2nc(Nc3ccc(N4CCN(S(N)(=O)=O)CC4)cc3OC)ncc2C(F)(F)F)c1 [Compound I-27, N-(3-(2-(2-methoxy-4-(4-sulfamoylpiperazin-1-yl)phenylamino)-5-(trifluoromethyl)pyrimidin-4-yloxy)phenyl)acrylamide]			
500 to 1000	10 to 100	> 1000			C=CC(=O)Nc1cccc(Nc2nc(Nc3ccc(N4CCN(C(=O)NC)CC4)cc3OC)ncc2C(F)(F)F)c1 [Compound I-28, 4-(4-(4-(3-acrylamidophenylamino)-5-(trifluoromethyl)pyrimidin-2-ylamino)-3-methoxyphenyl)-N-methylpiperazine-1-carboxamide]			
10 to 100	10 to 100	> 1000			C=CC(=O)Nc1cccc(Nc2nc(Nc3ccc(N4CCN(C(=O)OC)CC4)cc3OC)ncc2C(F)(F)F)c1 [Compound I-29, methyl 4-(4-(4-(3-acrylamidophenylamino)-5-(trifluoromethyl)pyrimidin-2-ylamino)-3-methoxyphenyl)piperazine-1-carboxylate]			
10 to 100	10 to 100	> 1000			C=CC(=O)Nc1cccc(Nc2nc(Nc3ccc(N4CCN(C(=O)CC)CC4)cc3OC)ncc2C(F)(F)F)c1 [Compound I-35, N-(3-(2-(2-methoxy-4-(4-propionylpiperazin-1-yl)phenylamino)-5-(trifluoromethyl)pyrimidin-4-ylamino)phenyl)acrylamide]			
100 to 500	10 to 100	> 1000			C=CC(=O)Nc1cccc(Oc2nc(Nc3ccc(N4CCOCC4)cc3OC(F)F)ncc2Cl)c1 [Compound I-36, N-(3-(5-chloro-2-(2-(difluoromethoxy)-4-morpholinophenylamino)pyrimidin-4-yloxy)phenyl)acrylamide]			
500 to 1000	100 to 500	> 1000			C=CC(=O)Nc1cccc(Oc2nc(Nc3ccc(N4CCCOCC4)cc3OC)ncc2Cl)c1 [Compound I-37, N-(3-(5-chloro-2-(2-methoxy-4-(1,4-oxazepan-4-yl)phenylamino)pyrimidin-4-yloxy)phenyl)acrylamide]			
> 1000	500 to 1000	> 1000			C=CC(=O)Nc1cccc(Nc2nc(Nc3ccc(N4CCCOCC4)cc3OC)ncc2C(F)(F)F)c1 [Compound I-38, N-(3-(2-(2-methoxy-4-(1,4-oxazepan-4-yl)phenylamino)-5-(trifluoromethyl)pyrimidin-4-ylamino)phenyl)acrylamide]			
> 1000	> 1000	> 1000			C=CC(=O)Nc1cccc(Oc2nc(Nc3ccc(N4CCCN(C(=O)OC(C)(C)C)CC4)cc3OC)ncc2C(F)(F)F)c1 [Compound I-39, tert-butyl 4-(4-(4-(3-acrylamidophenoxy)-5-(trifluoromethyl)pyrimidin-2-ylamino)-3-methoxyphenyl)-1,4-diazepane-1-carboxylate]			
100 to 500	10 to 100	> 1000			C=CC(=O)Nc1cccc(Nc2nc(Nc3ccc(N4CCN(C(=O)OC(C)(C)C)[C@H](C(=O)OC)C4)cc3OC)ncc2C(F)(F)F)c1 [Compound I-50, (S)-1-tert-butyl 2-methyl 4-(4-(4-(3-acrylamidophenylamino)-5-(trifluoromethyl)pyrimidin-2-ylamino)-3-methoxyphenyl)piperazine-1,2-dicarboxylate]			
				4	CCOc1cc2ncc(C#N)c(Nc3ccc(OCc4ccccn4)c(Cl)c3)c2cc1NC(=O)/C=C/CN(C)C [HKI-272, reference compound]			
